Experimental findings from patent publication US8796256B2 (Janssen Pharmaceutica NV, priority 2010, dated 2014) are described below.

The target in the test is T1, ERR1 (also known as ERR-α or ERR-1) (Homo sapiens, UniProt P11474).
T1 sequence (P11474 193-421 limits assumed): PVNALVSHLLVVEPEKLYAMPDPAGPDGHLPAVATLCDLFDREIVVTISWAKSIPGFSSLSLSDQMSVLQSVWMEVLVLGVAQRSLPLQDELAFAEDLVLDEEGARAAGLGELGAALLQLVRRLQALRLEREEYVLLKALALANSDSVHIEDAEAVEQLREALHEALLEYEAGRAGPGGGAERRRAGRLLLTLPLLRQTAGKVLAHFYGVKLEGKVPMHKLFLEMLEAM
Put plainly: TR-FRET assay (disruption of co-activator peptide binding to ERR1 LBD). Type of test: biochemical. The following applies: 6 nM 6His-ERR1LBD, 6 nM GST-SRC-2 peptide; average of 3 independent experiments. The gist of the method:
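His-tagged ERR1 ligand-binding domain and GST-labelled SRC-2 peptide, each 6 nM, equilibrated at 25° C for 4-18 h in Tris pH 8/Hepes/KCl/DTT/delipidated BSA buffer. Compound-induced loss of co-activator binding read as Eu cryptate→XL665 energy transfer; values from hyperbolic curve fits averaged over 3 independent runs.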
For orientation: Time-resolved FRET reads energy transfer from a long-lived donor to a nearby acceptor.
As to `CCNCCN1C(=O)S/C(=C\c2ccc3c(cnn3Cc3ccc(Cl)cc3C(F)(F)F)c2)C1=O` [Compound 47, (5Z)-5-({1-[4-Chloro-2-(trifluoromethyl)benzyl]-1H-indazol-5-yl}methylidene)-3-[2-(ethylamino)ethyl]-1,3-thiazolidine-2,4-dione], the EC50 was determined as 17 nM. That is a double-digit nanomolar value.

The compound `O=C(O)CN1C(=O)S/C(=C\c2ccc3c(c2)c(-c2ccc(F)cc2)nn3Cc2ccc(Cl)cc2C(F)(F)F)C1=O` [Compound 408, [(5Z)-5-({1-[4-Chloro-2-(trifluoromethyl)benzyl]-3-(4-fluorophenyl)-1H-indazol-5-yl}methylidene)-2,4-dioxo-1,3-thiazolidin-3-yl]acetic acid] had an EC50 of 153 nM. Against the preceding compound, the EC50 is about 9-fold higher.

With `O=C1S/C(=C\c2ccc3c(cnn3Cc3ccc(Cl)cc3C(F)(F)F)c2)C(=O)N1CCN1CC[C@H](O)C1` [Compound 1], the concentration for a half-maximal effect (EC50) is 130 nM.

The compound `COC(=O)C(C1CCN(C(=O)OC(C)(C)C)CC1)N1C(=O)S/C(=C\c2ccc3c(cnn3Cc3ccc(Cl)cc3C(F)(F)F)c2)C1=O` (stereo not shown) [Compound 215, tert-Butyl 4-{1-[(5Z)-5-({1-[4-chloro-2-(trifluoromethyl)benzyl]-1H-indazol-5-yl}methylidene)-2,4-dioxo-1,3-thiazolidin-3-yl]-2-methoxy-2-oxoethyl}piperidine-1-carboxylate] displayed an EC50 of 61 nM.

Take `O=C1S/C(=C\c2ccc3c(cnn3Cc3ccc(Cl)cc3C(F)(F)F)c2)C(=O)N1CCNS(=O)(=O)CCl` [Compound 385, 1-Chloro-N-{2-[(5Z)-5-({1-[4-chloro-2-(trifluoromethyl)benzyl]-1H-indazol-5-yl}methylidene)-2,4-dioxo-1,3-thiazolidin-3-yl]ethyl}methanesulfonamide]: the EC50 is 39 nM.

As for `COC(=O)C(Cc1cn(C)cn1)N1C(=O)S/C(=C\c2ccc3c(cnn3Cc3ccc(Cl)cc3C(F)(F)F)c2)C1=O` (stereo not shown) [Compound 214, Methyl 2-[(5Z)-5-({1-[4-chloro-2-(trifluoromethyl)benzyl]-1H-indazol-5-yl}methylidene)-2,4-dioxo-1,3-thiazolidin-3-yl]-3-(1-methyl-1H-imidazol-4-yl)propanoate], the concentration giving a half-maximal response (EC50) was determined as 44 nM.

Turning to `O=C1S/C(=C\c2ccc3c(cnn3Cc3ccc(C(F)(F)F)cc3C(F)(F)F)c2)C(=O)N1CCn1cncn1` [Compound 66, (5Z)-5-({1-[2,4-Bis(trifluoromethyl)benzyl]-1H-indazol-5-yl}methylidene)-3-[2-(1H-1,2,4-triazol-1-yl)ethyl]-1,3-thiazolidine-2,4-dione], a half-maximal effect (EC50) was put at 16 nM. Compared with the last compound, the EC50 is about 2.8-fold lower.

Take `CN1CC[C@@H](N2C(=O)S/C(=C\c3ccc4c(cnn4Cc4ccc(C(F)(F)F)cc4C(F)(F)F)c3)C2=O)[C@H](O)C1` (relative stereo) [Compound 276, (5Z)-5-({1-[2,4-Bis(trifluoromethyl)benzyl]-1H-indazol-5-yl}methylidene)-3-[trans-3-hydroxy-l-methylpiperidin-4-yl]-1,3-thiazolidine-2,4-dione]: a half-maximal response (EC50) required 29 nM.

Compound `Nc1nc(CN2C(=O)S/C(=C\c3ccc4c(cnn4Cc4ccc(Cl)cc4C(F)(F)F)c3)C2=O)cs1` [Compound 400, (5Z)-3-[(2-Amino-1,3-thiazol-4-yl)methyl]-5-({1-[4-chloro-2-(trifluoromethyl)benzyl]-1H-indazol-5-yl}methylidene)-1,3-thiazolidine-2,4-dione] displayed an EC50 of 62 nM. This EC50 lies about 2.1-fold higher than the previous one.

`O=C(O)c1ccc(CN2C(=O)S/C(=C\c3ccc4c(cnn4Cc4ccc(Cl)cc4C(F)(F)F)c3)C2=O)cc1` [Compound 377, 4-{[(5Z)-5-({1-[4-Chloro-2-(trifluoromethyl)benzyl]-1H-indazol-5-yl}methylidene)-2,4-dioxo-1,3-thiazolidin-3-yl]methyl}benzoic acid] gave an EC50 of 67 nM.

As to `COCCN1C(=O)S/C(=C\c2ccc3c(cnn3Cc3ccc(Cl)cc3C(F)(F)F)c2)C1=O` [Compound 123, (5Z)-5-({1-[4-Chloro-2-(trifluoromethyl)benzyl]-1H-indazol-5-yl}methylidene)-3-(2-methoxyethyl)-1,3-thiazolidine-2,4-dione], the half-maximal effective concentration (EC50) came out at 45 nM. The EC50 values of the last two compounds are within 1.5-fold of each other.

In turn, `NC1(CCN2C(=O)S/C(=C\c3ccc4c(cnn4Cc4ccc(C(F)(F)F)cc4C(F)(F)F)c3)C2=O)CCOCC1` [Compound 313, (5Z)-3-[2-(4-Aminotetrahydro-2H-pyran-4-yl)ethyl]-5-({1-[2,4-bis(trifluoromethyl)benzyl]-1H-indazol-5-yl}methylidene)-1,3-thiazolidine-2,4-dione] displayed a 50% effective concentration (EC50) of 700 nM.

`C[C@@H](N)CN1C(=O)S/C(=C\c2ccc3c(cnn3Cc3ccc(C(F)(F)F)cc3C(F)(F)F)c2)C1=O` [Compound 80, (5Z)-3-[(2R)-2-Aminopropyl]-5-({1-[2,4-bis(trifluoromethyl)benzyl]-1H-indazol-5-yl}methylidene)-1,3-thiazolidine-2,4-dione] yielded an EC50 of 41 nM.

`O=C1S/C(=C\c2ccc3c(cnn3Cc3ccc(Cl)cc3C(F)(F)F)c2)C(=O)N1[C@@H]1CN2CCC1CC2` [Compound 132, (5Z)-3-[(3S)-1-Azabicyclo[2.2.2]oct-3-yl]-5-({1-[4-chloro-2-(trifluoromethyl)benzyl]-1H-indazol-5-yl}methylidene)-1,3-thiazolidine-2,4-dione] showed a half-maximal effective concentration (EC50) of 18 nM.

`CNN1C(=O)S/C(=C\c2ccc3c(cnn3Cc3ccc(C(F)(F)F)cc3C(F)(F)F)c2)C1=O` [Compound 357, (5Z)-5-({1-[2,4-Bis(trifluoromethyl)benzyl]-1H-indazol-5-yl}methylidene)-3-(methylamino)-1,3-thiazolidine-2,4-dione] returned a 50% effective concentration (EC50) of 39 nM.

As for `CN(C)CCN1C(=O)S/C(=C\c2ccc3c(ccn3Cc3ccc(C#N)cc3C(F)(F)F)c2)C1=O` [Compound 246, 4-({5-[(Z)-{3-[2-(Dimethylamino)ethyl]-2,4-dioxo-1,3-thiazolidin-5-ylidene}methyl]-1H-indol-1-yl}methyl)-3-(trifluoromethyl)benzonitrile], a half-maximal effect (EC50) was put at 500 nM.

On to `CS(=O)(=O)NCCN1C(=O)S/C(=C\c2ccc3c(cnn3Cc3ccc(Cl)cc3C(F)(F)F)c2)C1=O` [Compound 158, N-{2-[(5Z)-5-({1-[4-Chloro-2-(trifluoromethyl)benzyl]-1H-indazol-5-yl}methylidene)-2,4-dioxo-1,3-thiazolidin-3-yl]ethyl}methanesulfonamide], for which the EC50 turned out to be 21 nM.

Regarding `O=C1S/C(=C\c2ccc3c(cnn3Cc3ccc(Cl)cc3C(F)(F)F)c2)C(=O)N1CCN1CCC(C(O)CO)CC1` (stereo not shown) [Compound 283, (5Z)-5-({1-[4-Chloro-2-(trifluoromethyl)benzyl]-1H-indazol-5-yl}methylidene)-3-{2-[4-(1,2-dihydroxyethyl)piperidin-1-yl]ethyl}-1,3-thiazolidine-2,4-dione], the half-maximal effective concentration (EC50) is 527 nM.

Compound `O=C(O)CN1C(=O)S/C(=C\c2ccc3c(cnn3Cc3ccc(Cl)cc3C(F)(F)F)c2F)C1=O` [Compound 347, [(5Z)-5-({1-[4-Chloro-2-(trifluoromethyl)benzyl]-4-fluoro-1H-indazol-5-yl}methylidene)-2,4-dioxo-1,3-thiazolidin-3-yl]acetic acid] came in with an EC50 of 116 nM.

The compound `COC(=O)C1(N2C(=O)S/C(=C\c3ccc4c(cnn4Cc4ccc(Cl)cc4C(F)(F)F)c3)C2=O)CCCC1` [Compound 232, Methyl 1-[(5Z)-5-({1-[4-chloro-2-(trifluoromethyl)benzyl]-1H-indazol-5-yl}methylidene)-2,4-dioxo-1,3-thiazolidin-3-yl]cyclopentanecarboxylate] returned an EC50 of 107 nM.

Take `O=C1S/C(=C\c2ccc3c(cnn3Cc3ccc(Cl)cc3C(F)(F)F)c2)C(=O)N1[C@@H]1CCNC[C@H]1F` [Compound 381, (5Z)-5-({1-[4-Chloro-2-(trifluoromethyl)benzyl]-1H-indazol-5-yl}methylidene)-3-[(3R,4R)-3-fluoropiperidin-4-yl]-1,3-thiazolidine-2,4-dione]: the concentration for a half-maximal effect (EC50) was found to be 28 nM.

Compound `CS(=O)(=O)NN1C(=O)S/C(=C\c2ccc3c(c2)c(C#N)nn3Cc2ccc(C(F)(F)F)cc2C(F)(F)F)C1=O` [Compound 369, N-[(5Z)-5-({1-[2,4-Bis(trifluoromethyl)benzyl]-3-cyano-1H-indazol-5-yl}methylidene)-2,4-dioxo-1,3-thiazolidin-3-yl]methanesulfonamide] displayed an EC50 of 64 nM.

Consider `O=C1S/C(=C\c2ccc3c(cnn3Cc3ccc(Cl)cc3C(F)(F)F)c2)C(=O)N1Cc1nccn1S(=O)(=O)N1CCCC1` [Compound 412, (5Z)-5-({1-[4-Chloro-2-(trifluoromethyl)benzyl]-1H-indazol-5-yl}methylidene)-3-{[1-(pyrrolidin-1-ylsulfonyl)-1H-imidazol-2-yl]methyl}-1,3-thiazolidine-2,4-dione], for which the EC50 was 38 nM.

For the compound `CS(=O)(=O)NN1C(=O)S/C(=C\c2ccc3c(cnn3Cc3ccc(Br)cc3C(F)(F)F)c2)C1=O` [Compound 364, N-[(5Z)-5-({1-[4-Bromo-2-(trifluoromethyl)benzyl]-1H-indazol-5-yl}methylidene)-2,4-dioxo-1,3-thiazolidin-3-yl]methanesulfonamide], the EC50 is 4 nM.

`COC(=O)NC1(CN2C(=O)S/C(=C\c3ccc4c(cnn4Cc4ccc(Cl)cc4C(F)(F)F)c3)C2=O)CCOCC1` [Compound 309, Methyl (4-{[(5Z)-5-({1-[4-chloro-2-(trifluoromethyl)benzyl]-1H-indazol-5-yl}methylidene)-2,4-dioxo-1,3-thiazolidin-3-yl]methyl}tetrahydro-2H-pyran-4-yl)carbamate] gave an EC50 of 15 nM.

A word on the EC50: it is the midpoint of the concentration-response curve. Low values mean a more potent agent, high ones a less potent agent.
